Measurements as given in ChEMBL document CHEMBL1201862, “PubChem BioAssay data set” (2004).
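Values below derive from 48-hour exposures of cells grown in 96-well plates, with endpoints linearly interpolated between the two concentrations bracketing the appropriate inhibition level. GI50 marks 50% less growth.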 Activity calls are given as the source filed them. No stated cut-off is given here; in the data, active = GI50 up to about 1.1 µM and inactive = higher.

How the values were obtained:
Test in all cases: DTP human tumour cell line panel, 48 h
[1] = test system: 786-0
[2] = test system: A498
[3] = test system: A549
[4] = test system: ACHN
[5] = test system: BT-549
[6] = test system: CAKI-1
[7] = test system: CCRF-CEM
[8] = test system: COLO 205
[9] = test system: DU-145
[10] = test system: EKVX
[11] = test system: HCC 2998
[12] = test system: HCT-116
[13] = test system: HCT-15
[14] = test system: HL-60
[15] = test system: HOP-62
[16] = test system: HOP-92
[17] = test system: HT-29
[18] = test system: Hs-578T
[19] = test system: IGROV-1
[20] = test system: K562
[21] = test system: KM12
[22] = test system: LOX IMVI
[23] = test system: MCF7
[24] = test system: MDA-MB-231
[25] = test system: MDA-MB-435
[26] = test system: MOLT-4
[27] = test system: Malme-3M
[28] = test system: NCI-H226
[29] = test system: NCI-H23
[30] = test system: NCI-H460
[31] = test system: NCI-H522
[32] = test system: NCI/ADR-RES
[33] = test system: OVCAR-3
[34] = test system: OVCAR-4
[35] = test system: OVCAR-5
[36] = test system: OVCAR-8
[37] = test system: PC-3
[38] = test system: RPMI-8226
[39] = test system: SF-268
[40] = test system: SF-295
[41] = test system: SF-539
[42] = test system: SK-MEL-28
[43] = test system: SK-MEL-2
[44] = test system: SK-MEL-5
[45] = test system: SK-OV-3
[46] = test system: SN12C
[47] = test system: SNB-19
[48] = test system: SNB-75
[49] = test system: SR
[50] = test system: SW-620
[51] = test system: T47D
[52] = test system: TK-10
[53] = test system: U-251
[54] = test system: UACC-257
[55] = test system: UACC-62
[56] = test system: UO-31
[57] = test system: M14
[58] = test system: MDA-N
[59] = test system: RXF 393

`O=C(NC1CCCCC1NC(c1ccccc1)(c1ccccc1)c1ccccc1)C(=O)NC1CCCCC1NC(c1ccccc1)(c1ccccc1)c1ccccc1` (stereo unspecified) was tested, and the GI50 [1] was 53.7 µM (inactive), the GI50 [2] was 28.9 µM (inactive) and the GI50 [3] was > 100 µM (inactive). The GI50 [4] was 92 µM (inactive), the GI50 [5] was 28.1 µM (inactive) and the GI50 [6] was > 100 µM (inactive). The GI50 [7] was > 100 µM (inactive), the GI50 [8] was > 100 µM (inactive) and the GI50 [9] was > 100 µM (inactive). For the same compound, the GI50 [10] was 67.3 µM (inactive), the GI50 [11] was > 100 µM (inactive) and the GI50 [12] was > 100 µM (inactive). The GI50 [13] was greater than 100 µM, the GI50 [14] was > 100 µM (inactive) and the GI50 [15] was 27.5 µM (inactive). The GI50 [16] was 10.5 µM (inactive), the GI50 [17] was > 100 µM (inactive) and the GI50 [18] was 13.6 µM (inactive). The GI50 [19] was 69.2 µM (inactive), the GI50 [20] was > 100 µM (inactive) and the GI50 [21] was > 100 µM (inactive). For the same compound, the GI50 [22] was > 100 µM (inactive), the GI50 [23] was > 100 µM (inactive) and the GI50 [24] was > 100 µM (inactive). For the same compound, the GI50 [25] was > 100 µM (inactive), the GI50 [26] was > 100 µM (inactive) and the GI50 [27] was > 100 µM (inactive). The GI50 [28] was 59.3 µM (inactive), the GI50 [29] was > 100 µM (inactive) and the GI50 [30] was > 100 µM (inactive). For the same compound, the GI50 [31] was 89.9 µM (inactive), the GI50 [32] was 81.5 µM (inactive) and the GI50 [33] was > 100 µM (inactive). The GI50 [34] was 22.6 µM (inactive), the GI50 [35] was > 100 µM (inactive) and the GI50 [36] was > 100 µM (inactive). For the same compound, the GI50 [37] was > 100 µM (inactive), the GI50 [38] was > 100 µM (inactive) and the GI50 [39] was 24 µM (inactive). The GI50 [40] was > 100 µM (inactive), the GI50 [41] was 51.2 µM (inactive) and the GI50 [42] was > 100 µM (inactive). The GI50 [43] was > 100 µM (inactive), the GI50 [44] was > 100 µM (inactive) and the GI50 [45] was 28.6 µM (inactive). The GI50 [46] was > 100 µM (inactive), the GI50 [47] was > 100 µM (inactive) and the GI50 [48] was 1.63 µM (inactive). The GI50 [49] was > 100 µM (inactive), the GI50 [50] was > 100 µM (inactive) and the GI50 [51] was 60.4 µM (inactive). The GI50 [52] was > 100 µM (inactive), the GI50 [53] was 21 µM (inactive) and the GI50 [54] was > 100 µM (inactive). The GI50 [55] was > 10 µM (inactive) and the GI50 [56] was 43.6 µM (inactive).

`CC1(C(=O)O)CCCC1C(=O)O` (stereo unspecified) was tested, and the GI50 [1] was > 100 µM (inactive), the GI50 [2] was > 100 µM (inactive) and the GI50 [3] was > 100 µM (inactive). For the same compound, the GI50 [4] was > 100 µM (inactive), the GI50 [5] was > 100 µM (inactive) and the GI50 [6] was > 100 µM (inactive). The GI50 [7] was > 100 µM (inactive), the GI50 [9] was > 100 µM (inactive) and the GI50 [10] was > 100 µM (inactive). The GI50 [12] was > 100 µM (inactive), the GI50 [13] was greater than 100 µM and the GI50 [14] was > 100 µM (inactive). The GI50 [15] was > 100 µM (inactive), the GI50 [16] was > 100 µM (inactive) and the GI50 [17] was > 100 µM (inactive). The GI50 [18] was > 100 µM (inactive), the GI50 [19] was > 100 µM (inactive) and the GI50 [20] was > 100 µM (inactive). For the same compound, the GI50 [21] was > 100 µM (inactive), the GI50 [22] was > 100 µM (inactive) and the GI50 [57] was > 100 µM (inactive). For the same compound, the GI50 [24] was > 100 µM (inactive), the GI50 [58] was > 100 µM (inactive) and the GI50 [26] was > 100 µM (inactive). The GI50 [27] was > 100 µM (inactive), the GI50 [28] was > 100 µM (inactive) and the GI50 [29] was > 100 µM (inactive). The GI50 [30] was > 100 µM (inactive), the GI50 [31] was > 100 µM (inactive) and the GI50 [32] was > 100 µM (inactive). The GI50 [33] was > 100 µM (inactive), the GI50 [34] was > 100 µM (inactive) and the GI50 [35] was > 100 µM (inactive). The GI50 [36] was > 100 µM (inactive), the GI50 [37] was > 100 µM (inactive) and the GI50 [38] was 4.51 µM (inactive). For the same compound, the GI50 [59] was > 100 µM (inactive), the GI50 [39] was > 100 µM (inactive) and the GI50 [40] was > 100 µM (inactive). For the same compound, the GI50 [42] was > 100 µM (inactive), the GI50 [43] was > 100 µM (inactive) and the GI50 [44] was > 100 µM (inactive). The GI50 [46] was > 100 µM (inactive), the GI50 [47] was > 100 µM (inactive) and the GI50 [50] was > 100 µM (inactive). The GI50 [51] was > 100 µM (inactive), the GI50 [52] was > 100 µM (inactive) and the GI50 [53] was > 100 µM (inactive). The GI50 [54] was > 100 µM (inactive), the GI50 [55] was > 100 µM (inactive) and the GI50 [56] was > 100 µM (inactive).

In the case of `COc1ccc2c(c1)/C(=C\c1cccc(/C=C3/C(=O)Nc4ccc(OC)cc43)n1)C(=O)N2`, the GI50 [1] is reported as 0.964 µM (active), the GI50 [2] is reported as 2.94 µM (inactive) and the GI50 [3] is reported as 3.05 µM (inactive). The GI50 [4] was 1.71 µM (inactive), the GI50 [5] was 0.91 µM (active) and the GI50 [6] was 1.99 µM (inactive). For the same compound, the GI50 [7] was 0.421 µM (active), the GI50 [8] was 0.33 µM (active) and the GI50 [9] was 2.1 µM (inactive). For the same compound, the GI50 [10] was 2.84 µM (inactive), the GI50 [11] was 0.933 µM (active) and the GI50 [12] was 0.352 µM (active). The GI50 [13] was 1.56 µM, the GI50 [14] was 0.506 µM (active) and the GI50 [15] was 1.55 µM (inactive). The GI50 [16] was 2.25 µM (inactive), the GI50 [18] was 4.35 µM (inactive) and the GI50 [20] was 0.412 µM (active). The GI50 [21] was 1.78 µM (inactive), the GI50 [57] was 1.32 µM (inactive) and the GI50 [23] was 0.466 µM (active). For the same compound, the GI50 [25] was 1.17 µM (inactive), the GI50 [26] was 0.261 µM (active) and the GI50 [27] was 2.01 µM (inactive). For the same compound, the GI50 [29] was 0.925 µM (active), the GI50 [30] was 1.4 µM (inactive) and the GI50 [31] was 0.861 µM (active). For the same compound, the GI50 [32] was 8.85 µM (inactive), the GI50 [33] was 0.676 µM (active) and the GI50 [34] was 1.02 µM (active). For the same compound, the GI50 [35] was 1.01 µM (active), the GI50 [36] was 1.17 µM (inactive) and the GI50 [37] was 1.32 µM (inactive). For the same compound, the GI50 [59] was 0.942 µM (active), the GI50 [39] was 2.42 µM (inactive) and the GI50 [40] was 2.47 µM (inactive). For the same compound, the GI50 [41] was 1.42 µM (inactive), the GI50 [43] was 3.01 µM (inactive) and the GI50 [44] was 0.834 µM (active). For the same compound, the GI50 [45] was 2.02 µM (inactive), the GI50 [46] was 0.757 µM (active) and the GI50 [47] was 0.805 µM (active). For the same compound, the GI50 [48] was 19.1 µM (inactive), the GI50 [50] was 0.982 µM (active) and the GI50 [51] was 0.381 µM (active). For the same compound, the GI50 [52] was 1.73 µM (inactive), the GI50 [53] was 0.461 µM (active) and the GI50 [54] was 2.48 µM (inactive). For the same compound, the GI50 [56] was 1.67 µM (inactive).
